Results reported in US12036262B2, “Edible plant-derived nanoparticles for regulation of gut microbiota” (University of Louisville Research Foundation, Inc., priority 2017, dated 2024).

Key:
[1] = test system: SpaC fragment with ath-miR167a binding site; assay: SpaC-pGFPuv GFP reporter in E. coli (FACS); type: cell-based
Procedure: Plasmid Construction and Mutagenesis. The SpaC fragment (339-800, LGG RS02140) spanning the sequences of the potential target (710-717) of GELN ath-miR167a was obtained by PCR with cDNA from LGG RNA. PCR was performed using a Bio-Rad thermal cycler T100. The 462-bp PCR product amplified by the primer pair SpaC-pGFPuv-F: 5′-[…]-3′ (SEQ ID NO: 1) and SpaC-pGFPuv-R: 5′-[…]-3′ (SEQ ID NO: 2) was ligated into the Sphl and Xbal restriction enzyme sites of a pGFPuv vector (Takara Bio/Clontech, Mountain View, California, United States of America) to obtain a green fluorescent protein (GFP) expression reporter. SpaC-pGFPuv fused with the SpaC gene fragment, which can be expressed in prokaryotic cells. To generate mutants of SpaC, the oligonucleotide primers SpaCMut-F, 5′-[…] […]
Flow Cytometry. […] Data were acquired using a BD FACSCalibur flow cytometer (BD Biosciences, San Jose, California, United States of America) and analyzed using FlowJo software (Tree Star Inc., Ashland, Oregon, United States of America). To visualize bacteria stained with PKH26/67 and transformed with SpaC-pGFPuv plasmid, the PKH26/67-positive and GFP-positive bacteria were detected by flow cytometry using a BD FACSCalibur flow cytometer (BD Biosciences, San Jose, California, United States of America), and data were analyzed using FlowJo software (Tree Star Inc., Ashland, Oregon, United States of America).

[2] = test system: Lactobacillus rhamnosus GG (LGG); assay: LGG proliferation in culture (OD600); type: cell-based; conditions: compared with scrambled miRNA
Procedure: Bacteria. Lactobacillus rhamnosus (LGG) was obtained from ATCC® (Catalog No. 53103). The SpaC-deleted LGG was cultured in Lysogeny broth (LB; ISC BioExpress, Kaysville, Utah, United States of America) at 37° C. Ruminococcaceae sp. (ATCC® Catalog No. TSD-27) was grown in GS2+cellobiose medium (Biddle et al., 2013). Listeria monocytogenes (Listeria; ATCC® Catalog No. 15313) and Bacteroides fragilis (Fragilis, NCTC 9343) were cultured in brain heart infusion (BHI) broth (Hardy Diagnostics, Santa Maria, California, United States of America) as described in Zhang & Wang, 2015 and Deng et al., 2015, respectively. LGG was grown in MRS broth media at 37° C. in anaerobic conditions for 14-16 hours to an OD600 of 0.8-1.0. Bacterial viability and concentration were checked by MRS agar platting. Cultures were centrifuged and the bacterial pellet was diluted in MRS for in vitro experiments and in PBS for gavaging at 10^9 CFU/mouse per day.

## ath-miR167a: GELN miRNA, SEQ ID NO: 9 (UGAAGCUGCCAGCAUGAUCUA; expressed or natural sequence)
[1]
  GFP expression with mutation that disrupted the binding site: entirely restored GFP expression
[2]
  growth of SpaC^del LGG: no effect
